From US5366982A (priority 1990, dated 1994)

Columns and labels:
leukotriene B4 receptors = leukotriene B4 receptors (Cavia porcellus, UniProt H0VYV8); assay: biochemical; format: binding, guinea-pig; details: Table XIX; guinea-pig spleen membranes, tritium-labelled LTB4; read-out: IC50 Binding (Cheng)
[1] = tested on: guinea-pig pulmonary parenchyma; assay: L. Parenchyma: guinea-pig pulmonary parenchyma contraction antagonism induced by LTB4 (Sirois); format: cell-based; details: Cavia porcellus; Table XIX; guinea-pig pulmonary parenchyma contraction induced by LTB4; read-out: IC50 L. Parenchyma
Protocol: Further, compounds of this invention are shown to be leukotriene B4 antagonists in the technique of guinea-pig pulmonary parenchyma contraction antagonism induced by LTB4 described by P. Sirois et al., Pharmacology, 31, 225-236 (1985). In this technique, products are active at concentrations of between about 1 to about 10,000 nM.

leukotriene B4 receptors, sequence (H0VYV8 1-348): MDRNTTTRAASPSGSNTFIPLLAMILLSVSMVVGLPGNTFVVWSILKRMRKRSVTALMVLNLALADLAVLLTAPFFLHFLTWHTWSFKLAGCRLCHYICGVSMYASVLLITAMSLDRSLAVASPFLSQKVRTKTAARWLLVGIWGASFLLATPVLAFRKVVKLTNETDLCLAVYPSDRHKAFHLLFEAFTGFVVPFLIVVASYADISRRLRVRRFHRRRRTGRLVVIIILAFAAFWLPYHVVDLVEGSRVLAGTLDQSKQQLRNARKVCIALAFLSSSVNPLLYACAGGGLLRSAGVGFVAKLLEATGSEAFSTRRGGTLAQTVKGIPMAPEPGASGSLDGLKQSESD

Structure (SMILES) | IC50 (leukotriene B4 receptors) | IC50 [1]
CC(CCCCOc1cc(-c2ccccc2)cc(-c2ccccc2F)n1)C(=O)O (stereo not drawn) [2-methyl-6-{[6-(2-fluorophenyl)-4-phenyl-2-pyridyl]oxy}hexanoic acid] | 4 nM | 6 nM
O=C(O)c1ccc(COc2cc(-c3ccccc3)cc(-c3ccccc3)n2)cc1 [4-[(4,6-diphenyl-2-pyridyl)oxymethyl]benzoic acid] | 350 nM | 10000 nM
O=C(O)CCCCOc1cc(-c2ccccc2)cc(-c2ccccc2)n1 [5-[(4,6-diphenyl-2-pyridyl)oxy]pentanoic acid] | 50 nM | 2000 nM
CC(C)(CCCCOc1cc(-c2ccccc2)cc(-c2ccccc2)n1)c1nnn[nH]1 [5-{1,1-dimethyl-5-[(4,6-diphenyl-2-pyridyl)oxy]pentyl}-[1H]-tetrazole] | 7 nM | 20 nM
NC(=O)CCCCCOc1cc(-c2ccccc2)cc(-c2ccccc2)n1 [6-[(4,6-diphenyl-2-pyridyl)oxy]hexanamide] | 160 nM | > 1000 nM
O=C(O)CCCCCOc1cc(-c2ccccc2)cc(-c2ccccc2)n1 [6-[(4,6-diphenyl-2-pyridyl)oxy]hexanoic acid] | 3 nM | 300 nM
CC(C)(CCCCOc1nc(-c2ccccc2)cc(-c2ccccc2)n1)C(=O)O [6-[(4,6-diphenyl-2-pyrimidyl)oxy]-2,2-dimethylhexanoic acid] | 10 nM | 1000 nM
CC(C)(CCCCOc1cc(-c2ccccc2)ccn1)C(=O)O [6-[(4-phenyl-2-pyridyl)oxy]-2,2-dimethylhexanoic acid] | 40 nM | 3000 nM
CC(C)(CCCCOc1cc(-c2ccccc2)cc(C(C)(C)C)n1)C(=O)O [6-[(6-ter-butyl-4-phenyl-2-pyridyl)oxy]-2,2-dimethylhexanoic acid] | 40 nM | 1000 nM
CC(C)(C)c1cc(-c2ccccc2)cc(OCCCCCC(=O)O)n1 [6-[(6-ter-butyl-5-phenyl-2-pyridyl)oxy]hexanoic acid] | 300 nM | 2000 nM
O=C(O)CCCCCOc1cc(-c2ccc3c(c2)OCO3)cc(-c2ccccc2)n1 [6-{[4-(3,4-methylenedioxyphenyl)-6-phenyl-2-pyridyl]oxy}hexanoic acid] | 1 nM | 5 nM
O=C(O)CCCCCOc1cc(-c2cccc(F)c2)cc(-c2ccccc2)n1 [6-{[4-(3-fluorophenyl)-6-phenyl-2-pyridyl]oxy}hexanoic acid] | 3 nM | 200 nM
COc1cccc(-c2cc(OCCCCCC(=O)O)nc(-c3ccccc3)c2)c1 [6-{[4-(3-methoxyphenyl)-6-phenyl-2-pyridyl]oxy}hexanoic acid] | 8 nM | 200 nM
O=C(O)CCCCCOc1cc(-c2ccc(Cl)cc2)cc(-c2ccccc2)n1 [6-{[4-(4-chlorophenyl)-6-phenyl-2-pyridyl]oxy}hexanoic acid] | 10 nM | 100 nM
O=C(O)CCCCCOc1cc(-c2ccc(F)cc2)cc(-c2ccccc2F)n1 [6-{[4-(4-fluorophenyl)-6-(2-fluorophenyl)-2-pyridyl]oxy}hexanoic acid] | 10 nM | 1000 nM
O=C(O)CCCCCOc1cc(-c2ccc(F)cc2)cc(-c2ccccc2)n1 [6-{[4-(4-fluorophenyl)-6-phenyl-2-pyridyl]oxy}hexanoic acid] | 3 nM | 800 nM
COc1ccc(-c2cc(OCCCCCC(=O)O)nc(-c3ccccc3)c2)cc1 [6-{[4-(4-methoxyphenyl)-6-phenyl-2-pyridyl]oxy}hexanoic acid] | 15 nM | 1100 nM
Cc1ccc(-c2cc(OCCCCCC(=O)O)nc(-c3ccccc3)c2)cc1 [6-{[4-(4-methylphenyl)-6-phenyl-2-pyridyl]oxy}hexanoic acid] | 15 nM | 100 nM
CSc1ccc(-c2cc(OCCCCCC(=O)O)nc(-c3ccccc3)c2)cc1 [6-{[4-(4-methylthiophenyl)-6-phenyl-2-pyridyl]oxy}hexanoic acid] | 10 nM | 3000 nM
O=C(O)CCCCCOc1cc(-c2ccccc2)cc(-c2cccs2)n1 [6-{[4-phenyl-6-(2-thienyl)-2-pyridyl]oxy}hexanoic acid] | 50 nM | 300 nM
O=C(O)CCCCCOc1cc(-c2ccccc2)cc(-c2ccsc2)n1 [6-{[4-phenyl-6-(3-thienyl)-2-pyridyl]oxy}hexanoic acid] | 10 nM | 1000 nM
O=C(O)CCCCCOc1cc(-c2ccccc2)cc(-c2ccccc2F)n1 [6-{[6-(2-fluorophenyl)-4-phenyl-2-pyridyl]oxy}hexanoic acid] | 3 nM | 60 nM
O=C(O)CCCCCOc1cc(-c2ccccc2)cc(-c2cccc(F)c2)n1 [6-{[6-(3-fluorophenyl)-4-phenyl-2-pyridyl]oxy}hexanoic acid] | 4 nM | 150 nM
COc1ccc(-c2cc(OCCCCCC(=O)O)nc(-c3ccc(Cl)cc3)c2)cc1 [6-{[6-(4-chlorophenyl)-4-(4-methoxyphenyl)-2-pyridyl]oxy}hexanoic acid] | 1200 nM | > 10000 nM
O=C(O)CCCCCOc1cc(-c2ccccc2)cc(-c2ccc(F)cc2)n1 [6-{[6-(4-fluorophenyl)-4-phenyl-2-pyridyl]oxy}hexanoic acid] | 30 nM | 1700 nM
O=C(O)CCCCCCOc1cc(-c2ccccc2)cc(-c2ccccc2)n1 [7-[(4,6-diphenyl-2-pyridyl)oxy]heptanoic acid] | 25 nM | 1300 nM
COC(=O)CCCCCOc1cc(-c2ccccc2)cc(-c2ccccc2)n1 [methyl 6-[(4,6-diphenyl-2-pyridyl)oxy]hexanoate] | 40 nM | > 10000 nM
